Measurements reported in patent publication EP4567115A1, “METHOD FOR PRODUCING RIBOSOME IN CELL-FREE PROTEIN SYNTHESIS SYSTEM” (priority 2022, dated 2024).

Legend:
Format in all cases: biochemical, E. coli
endogenous ribosome = assay: Spectinomycin concentration optimisation, sonicated S12 cell extract with pT7_wtSD_LacZ reporter; details: spectinomycin concentration 5 mM
Protocol: Next, the optimal concentration of spectinomycin was examined. BL21 Star™ (DE3) lacZ::frt was transformed with a plasmid containing rRNA with or without C1192U spectinomycin resistance (SpcR). These bacterial strains were cultured in the presence of 0.1 mM IPTG for 3 hours, and the sonicated S12 cell extract and pT7_wtSD_LacZ reporter were mixed at various spectinomycin concentrations. […] Therefore, in the following experiments, the spectinomycin concentration was set to 5 mM unless otherwise specified.

native ribosomes = assay: Femtoliter droplet assay, control cell extract with pT7_oSD_or1_LacZ reporter; details: 100 µM spectinomycin, 5 nM pT7_oSD_or1_LacZ reporter
Protocol: A mixed oil consisting of light mineral oil (Sigma-Aldrich Corporation, St. Louis, MO, USA), 4.5% sorbitan monooleate (Nacalai Tesque), and 0.5% Triton® X-100 (Nacalai Tesque) was provided. The solution after the second reaction and the mixed oil were mixed and a microtube (Maruemu Corporation, Osaka, Japan) was tapped 20 times to obtain an emulsion. The resulting emulsion was incubated at 37°C for 2 hours to 17 hours, and bright field and fluorescence images of the droplets were acquired over time using a confocal fluorescence microscope LSM700 (Carl Zeiss AG, Oberkochen, Germany). The 488 nm laser was focused using an oil-immersion objective lens (Plan-Apochromat 40x/1.4 Oil DIC M27, Carl Zeiss AG) and oil-immersion oil (ImmersolTM518F, Carl Zeiss AG).
Next, a control experiment was performed using a control cell extract containing only native ribosomes and a pT7_oSD_or1_LacZ reporter. The control cell extract was mixed with 5 nM pT7_oSD_or1_LacZ reporter. In this condition, no fluorescence from native ribosomes was detected in the bulk assay (Fig. 10d).

[1] = target: T1, wild-type 30S r-protein S12 (Escherichia coli, UniProt P0A7S3); assay: Bulk assay of in vitro produced 70S ribosome with wild-type S12 (pT7_oSD_or1_LacZ reporter), with streptomycin; details: wild-type 30S r-protein S12 gene; in the presence of spectinomycin and streptomycin
T1 construct: made in house; host or cells: cell-free transcription/translation in E. coli S150 cell extract (first reaction)
Protocol: (§1) For the second reaction, a second reaction solution was prepared which contained 3.6 µL of the cell extract, an antibiotic (200 µM spectinomycin, 20 µg/mL streptomycin, 3 mM clindamycin, or 240 nM thiostrepton), 3 nM of the reporter plasmid, and 1 mM of IPTG. Note that when the reporter plasmid expressed LacZ, the second reaction solution included 66 µM of 5-chloromethylfluorescein di-β-D-galactopyranoside (CMFDG; Invitrogen, Waltham, MA, USA) as a substrate for LacZ. In the second reaction, 15 µL of the second reaction solution was added to and mixed with 15 µL of the solution after the first reaction, and the signal of the reporter was then measured. […] The signal of the reporter was quantified at λex = 485 nm and λem = 535 nm by using a fluorescence microplate reader, Fluoroskan Ascent FL™ (Thermo Fisher Scientific) or Infinite® 200 PRO (TECAN, Mannedorf, Switzerland).
(§2) A gene encoding a K43T mutant of 30S r-protein S12, which mutant confers streptomycin resistance to ribosomes, was used to produce a 70S ribosome with streptomycin resistance. […] In the second reaction, the translational activity of the ribosomal SSU was then detected by a bulk assay using the pT7_oSD_or1_LacZ reporter in the presence of spectinomycin and in the presence or absence of streptomycin.

[2] = target: T2, K43T mutant of 30S r-protein S12 (Escherichia coli, UniProt P0A7S3, K43T); assay: Bulk assay of in vitro produced 70S ribosome with S12 K43T mutant (pT7_oSD_or1_LacZ reporter), with streptomycin; details: gene encoding K43T mutant of 30S r-protein S12; in the presence of spectinomycin and streptomycin
T2 construct: made in house; host or cells: cell-free transcription/translation in E. coli S150 cell extract (first reaction)
Protocol: as §1, §2

[3] = target: T3, 30S r-protein S12 K43T mutant (Escherichia coli, UniProt P0A7S3, K43T); assay: Bulk assay of in vitro produced SSU with S12 K43T mutant, spectinomycin and streptomycin in the second reaction; details: SSU only; gene encoding 30S r-protein S12 K43T mutant; in the presence of spectinomycin and streptomycin
T3 construct: made in house; host or cells: cell-free transcription/translation in E. coli S150 cell extract (first reaction)
Protocol: as §1
The in vitro production of ribosomal SSU was specifically performed by the following procedure. […] The fluorescence of the reaction solution was measured by a bulk assay or a femtoliter droplet assay. In the bulk assay, the reporter signal was kinetically measured at λex = 485 nm and λem = 535 nm by using a Fluoroskan Ascent FL™ (Thermo Fisher Scientific) or Infinite® 200 PRO (TECAN) at 37°C for 120 minutes, 720 minutes, or 900 minutes. […]

[4] = test system: native ribosome (Escherichia coli); assay: Bulk assay of native ribosome translational activity (LacZ reporter) with or without thiostrepton in the second reaction; details: in the presence of thiostrepton (120 nM, Fig. 5a); pT7PCONS_EpsA20_wtSD_lacZ reporter
Protocol: as §1
(§3) The in vitro production of ribosomal LSU was specifically performed by the following procedure. […] The fluorescence of the reaction solution was measured by a bulk assay in the same manner as in the case of the SSU.
(§4) Thiostrepton is known to inactivate an LSU by binding to 50S r-protein L11. […] In the second reaction, the translational activity of the ribosomal LSU was then detected by a bulk assay using the pT7PCONS_EpsA20_wtSD_lacZ reporter in the presence or absence of thiostrepton.

[5] = test system: LSU formed using 32 different LSU r-protein genes excluding r-protein L11 gene; assay: Bulk assay of in vitro formed LSU lacking r-protein L11 (LacZ reporter) in the presence of thiostrepton; details: in the presence of thiostrepton (120 nM, Fig. 5b); LSU formed without r-protein L11 gene
Protocol: as §1, §3, §4

## CN[C@@H]1[C@H](O)[C@H](NC)[C@H]2O[C@@]3(O)C(=O)C[C@@H](C)O[C@H]3O[C@@H]2[C@H]1O [spectinomycin]
Endogenous ribosome
  activity of the endogenous ribosome: strongly suppressed
Native ribosomes
  fluorescence derived from native ribosomes: fluorescence derived from native ribosomes can be removed

## [H]/N=C(/N)N[C@H]1[C@H](O)[C@@H](O)[C@H](O[C@@H]2O[C@@H](C)[C@](O)(C=O)[C@H]2O[C@@H]2O[C@@H](CO)[C@H](O)[C@@H](O)[C@@H]2NC)[C@@H](N/C(N)=N\[H])[C@@H]1O [streptomycin]
[1]
  reporter signal (translational activity of the ribosomal SSU): no signal was detected
[2]
  reporter signal (translational activity of the ribosomal SSU): a signal was detected
[3]
  reporter signal: the reporter signal was not affected

## C=C(NC(=O)C(=C)NC(=O)c1csc(C2=N[C@@H]3c4csc(n4)[C@H]4NC(=O)c5csc(n5)[C@H]([C@](C)(O)[C@@H](C)O)NC(=O)[C@H]5CSC(=N5)/C(=C/C)NC(=O)[C@H]([C@@H](C)O)NC(=O)c5csc(n5)[C@]3(CC2)NC(=O)[C@H](C)NC(=O)C(=C)NC(=O)[C@H](C)NC(=O)[C@H]([C@@H](C)CC)N[C@@H]2C=Cc3c([C@H](C)O)cc(nc3[C@H]2O)C(=O)O[C@@H]4C)n1)C(N)=O [thiostrepton]
[4]
  signal of LSU (activity of the native ribosome): the signal of LSU disappeared
[5]
  LSU signal: An LSU signal was detected
